Series [1] concerns Staphylococcus aureus adhering to reconstructed epidermis. The class given is cell-based. The settings on record: for Reduction of log/control: reduction of decimal logarithm of mean number of viable Staphylococcus aureus adhering to reconstructed epidermis (EPISKIN) vs water, 25 mg fatty substance, 2 hours at 37° C., then 24 hours with bacteria. How it is done: Moreover, these fatty substances are such that the decimal logarithm of the mean number of viable bacteria adhering to reconstructed epidermis, after a test consisting in bringing the said epidermis into contact with the test compound for 2 hours at 37° C., is at least 0.3, preferably 0.5 and more preferably 1, less than that obtained by a test carried out with water under the same conditions.
The reconstructed epidermis used in the test indicated above is reconstructed human epidermis, equivalent to human skin, sold by EPISKIN.
The antiadhesion test corresponds to the protocol below:
Before bacterial adhesion, the reconstructed epidermis is brought into contact for 2 hours with 25 mg of the fatty substance to be tested at 37° C. 1 ml of bacterial suspension of Staphylococcus aureus at a concentration of 10^7 microorganisms/ml in Tryptone salt is then added thereto. After incubating for 24 hours at 37° C., the bacterial suspension is emptied and five rinsings are carried out with 1 ml of sterile distilled water. The epidermis, detached from its support, is then ground with the aid of a food processor in 18 ml of Tryptone salt. A decimal dilution is carried out on this suspension in Tryptone salt, and 1 ml of the dilution is then inoculated into 15 ml of Trypticase Soy agar and the medium is incubated for 24 hours at 37° C. The adherent and viable cells are then counted.
This antiadhesion test makes it possible to evaluate the efficacy of molecules alone or of finished products.
The figures presented opposite the fatty substance correspond to the reduction of the decimal logarithm of the mean number of viable Staphylococcus aureus adhering to reconstructed epidermis after treatment with the fatty substance under the conditions defined by the preceding test compared with the decimal logarithm of the mean number of viable Staphylococcus aureus adhering to reconstructed epidermis after treatment with water under the same conditions.
The figures presented opposite the fatty substance correspond to the value of the decimal logarithm of the mean number of viable Staphylococcus aureus adhering to reconstructed epidermis after treatment with the fatty substance under the conditions defined by the preceding test compared with the decimal logarithm of the mean number of viable Staphylococcus aureus adhering to reconstructed epidermis after treatment with water under the same conditions.

The nature of series [2]: interfacial tension of the fatty substance. The class given is physicochemical.

The compound `CCCCCCCCOC(=O)CCCCC(=O)OCCCCCCCC` [Dioctyl adipate] had a Reduction of log/control in series [1] of 0.9.
The same measure, in the same setting: in the case of `CCCCCCCCCCCCCCCC(=O)OC(C)C` [Isopropyl palmitate] it was 1.07; in that of `CCCCCCCCCCCCCCCCCCCCCC(=O)OCC(O)COCC(CC)CCCC` (centres unmarked) [Octoxyglyceryl behenate], 2.59.
Still for that read-out and setting: as for `CCCCCCCCCCCCCCCC(=O)OCC(O)COCC(CC)CCCC` (centres unmarked) [Octoxyglyceryl palmitate], the figure is 1.85.
In the case of `CC(C)CCCC(C)CCCC(C)CCCCC(C)CCCC(C)CCCC(C)C` (centres unmarked) [Squalane, reference compound], the Log measured in series [1] (decimal logarithm of viable adhering Staphylococcus aureus compared with water control, the printed number is an increase /control, same test conditions) is recorded as 0.27/control. The compound also gave an Interfacial tension in series [2] of 46 mN/m.
In series [1], Di(C12-13 alkyl) malate returned a Reduction of log/control of 3.68.
Same read-out and setting: in the case of Tartrate of branched C12-C13 dialcohols it was 2.31.

These data come from US20010018060A1, “Use of particular fatty substances which make it possible to modify the physicochemical properties of the skin and/or the mucous membranes as agents preventing or reducing the adhesion of microorganisms to the latter” (priority 2000, published 2001).
